Drawing on ChEMBL document CHEMBL3507680, “University of Dundee, Gates Library screen for HepG2 cell viability”, this text covers cytotoxicity for 98 molecules.

The nature of this series: Human HepG2 cell viability assay in 384 well format. Format: toxicity, cell-based. Further details: dose 125 nL, time 70.5 hour; concentration not given beside the values. The following applies: HepG2 cells, read-out: Inhibition.
As to `O=C(CCc1ccsc1)N1CCC(C(=O)O)(c2ccccc2)CC1`, the cytotoxicity at 70.5 h is -0.12%.
The value for `O=C(Nc1cccs1)N(CCO)CCOCC(F)(F)F` was 6.76%.
The value for `COc1ccc(C2CCCN2C(=O)c2csc(NC(C)=O)n2)cc1` (stereo not drawn) was -20.6%.
Regarding `Cc1ccc(-c2nc(CN3CCn4c(nnc4C4CC4)C3)co2)cc1`, the cytotoxicity at 70.5 h is -5.93%.
For `COCCNc1cc(C2CCCNC2)ccn1` (stereo not drawn), the cytotoxicity at 70.5 h was -7.3%.
For `CC(C)CN1CCC2(CCN(Cc3ccc(F)cc3)CC2)C1=O`, the cytotoxicity at 70.5 h is -5.32%.
As to `COc1cccc(CN2CCCC2c2c(C)nn(C)c2C)c1` (stereo not drawn), the cytotoxicity at 70.5 h is 3.04%.
On to `CC(C)CNC(=O)[C@H]1CCS(=O)(=O)[C@@H]2CN(Cc3cccc(Cl)c3)C[C@H]12`, for which the cytotoxicity at 70.5 h came to 24.3%.
With `Cc1cnc2c(S(=O)(=O)NCC3CCN(C4CC4)C3)cccc2c1` (stereo not drawn) the figure was -5.3%.
The value for `COc1ncccc1C(=O)N1CC(c2nc(-c3cccs3)no2)C1` was -5.8%; that for `CCc1nn(-c2cc(Oc3cccc(C)c3)nc(C)n2)c(N)c1C#N` was -8.17%.
For `CN(Cc1ccccc1CNC(=O)C1CNC(=O)N1)C1CCCCC1` (stereo not drawn), the cytotoxicity at 70.5 h is -4.23%.
The value for `O=C(c1c(F)cccc1F)N1CCC[C@@H]1Cn1c(=O)oc2ccccc21` was -0.473%; that for `Cc1nn(C)c(N(C)C)c1CNCCNS(C)(=O)=O` was -7.58%; that for `CN1CCN(C(=O)N2C[C@H]3CC[C@@H]2CN(Cc2ccccc2)C3)CC1` was -18.1%.
With `COCCN1Cc2ccccc2C2(CCN(S(C)(=O)=O)CC2)C1` the figure was -5.3%.
As to `CC(C)(C)Nc1c(C2CCN(C(=O)C3CC3)CC2)nc2ccccn12`, the cytotoxicity at 70.5 h came to 17.8%.
With `CN(C)CCN1CCN(C(=O)c2ccn(C)c(=O)c2)CC1` the figure was -11.6%; with `O=C(NCC1CC1)[C@@H]1C[C@@H]2OCCN[C@@H]2C1`, -2.73%; with `CCc1cnc(N2CCN(CC(=O)Nc3c(C)n[nH]c3C)CC2)s1`, -3.55%.
The value for `Cc1cnn(CC(=O)N(CC2CN(C)CCO2)c2nccs2)c1` (stereo not drawn) was -14.4%; that for `COc1ccc(C2CCCCCN2Cc2cn(C)nc2C)cc1` (stereo not drawn) was -3.41%; that for `OC1(CN2CCCC2)CCCN(Cc2ccc(F)cc2Cl)C1` (stereo not drawn) was -7.3%.
Regarding `COC(C)(CNS(=O)(=O)c1cn(C)cn1)c1ccccc1F` (stereo not drawn), the cytotoxicity at 70.5 h came to 9.94%.
Take `CC(=O)NCC(=O)N1CCN(CCN(C)C)c2ncccc2C1`: the cytotoxicity at 70.5 h is -14.2%.
With `Cc1ccc(C(=O)N2CC3(CCNCC3)c3cc(Cl)ccc32)cn1` the figure was -7.61%; with `Cn1cc(C(=O)CC2CCCN2C(=O)c2ccc(Cl)cn2)cn1` (stereo not drawn), -8.95%.
With `CCOc1cccc(NC(=O)c2cnc(C)cn2)n1` the figure was -3.9%.
The value for `Cc1ccc(C(CNCc2ncc[nH]2)N2CCOCC2)s1` (stereo not drawn) was -12.7%.
Take `CCS(=O)(=O)N1CCC2(CCN(Cc3ccc(C)o3)C2)C1` (stereo not drawn): the cytotoxicity at 70.5 h is 13%.
With `O=C1CSC(c2ccncc2)c2c[nH]nc2N1` (stereo not drawn) the figure was -8.06%; with `CSCCCN1C[C@H](NC(=O)c2cc(C3CC3)on2)[C@@H](C2CC2)C1`, -7.58%; with `CC1(CNC(=O)NCc2ccsc2)CCCS1` (stereo not drawn), -8.93%.
With `CCOc1ccnc(N2CCN(C(=O)C(C)(C)C#N)CC2)n1` the figure was -12.5%; with `CC(C)CNC(=O)CCN1C(=O)CCc2cc(F)ccc21`, -4.13%; with `Cc1c(CN2CCOCC2)c(O)n(CCO)c(=O)c1C#N`, 41%.
With `Cc1cccc(CN2CCN(C(=O)N(C)C)[C@@H]3CS(=O)(=O)C[C@@H]32)n1` the figure was 2.11%; with `NC(=O)CC1CCN(C(=O)NCc2cccc(-n3cccn3)c2)CC1`, -1.91%.
For `CS(=O)(=O)NC[C@]12COC[C@H]1CN(CCc1ccccc1)C2`, the cytotoxicity at 70.5 h was -8.06%.
Regarding `Cc1cc(N2CCN(c3ccc(=O)[nH]n3)CC2)nc(-c2ccncc2)n1`, the cytotoxicity at 70.5 h is -5.53%.
With `CC(=O)NCC1CCN(Cc2nc(C3CC3)no2)CC1` the figure was -6.87%; with `CS(=O)(=O)N1CCc2ccc(=O)n(CC3CCOCC3)c2CC1`, -7.42%.
With `CC(C(=O)Nc1cccc(N2CCCCC2)c1)n1cncn1` (stereo not drawn) the figure was -6.3%.
`O=C([C@H]1CC[C@@H]2[C@@H](CCN2C2CCOCC2)O1)N1CCOCC1`: the cytotoxicity at 70.5 h is -6.52%.
For `CNc1nc(C(=O)N2C[C@@H]3CCN(C)[C@@H]3C2)cs1`, the cytotoxicity at 70.5 h is -3.23%.
The value for `CC(C)c1noc(C(C)N2CCN(Cc3cccc(C#N)c3)CC2)n1` (stereo not drawn) was -11%; that for `Cc1nc(-c2cccc(Cl)c2)n(CC(=O)NCC2CCCO2)c(=O)c1C` (stereo not drawn) was 3.53%; that for `Cc1noc(C)c1-c1nc(C2CCCN(CCC(N)=O)C2)ccc1CO` (stereo not drawn) was -6.81%.
With `CCC(NC1CSCCSC1)c1ccc(S(C)(=O)=O)cc1` (stereo not drawn) the figure was -14.2%; with `COc1ncccc1CNCc1c(C)nn(C)c1N(C)C`, 19.7%; with `Nc1no[n+]([O-])c1C(=O)NCc1ccco1`, 7.08%.
With `CN(C)CC1CN(CCOc2cccc(C#N)c2)CCO1` (stereo not drawn) the figure was 0.102%; with `Cc1cnc(N2CCC3(CC(=O)N(Cc4csc(C)n4)C3)C2)nc1` (stereo not drawn), -11.1%.
For `Cc1ccc(-c2cc(C(=O)NCCN3CCCS3(=O)=O)[nH]n2)o1`, the cytotoxicity at 70.5 h was -14.9%.
With `Cc1c(F)cccc1S(=O)(=O)Nc1noc(C(C)C)n1` the figure was -7.44%; with `CCCn1cnc2c(cnn2-c2cccc(C)c2C)c1=O`, 37.7%; with `CC1(C)CNC(=O)CN(C(=O)COc2ccccc2)C1`, -14.2%.
As to `CC(C)(C)CC(=O)N1CCCC2(CC(C(=O)Nc3ccccc3)=NO2)C1` (stereo not drawn), the cytotoxicity at 70.5 h is -8.03%.
The value for `O=C(c1cnc2[nH]c(=O)[nH]c(=O)c2c1)N1CCCC1C1CCCC1` (stereo not drawn) was -11.9%.
The value for `Nc1nnc(Cn2nnc(-c3ccccc3F)n2)s1` was -12.8%; that for `COc1ncccc1C(=O)N1C[C@@H]2COC[C@]2(CN(C)C)C1` was -1.76%.
`COc1ccc(OC)c(-c2csc(-c3cccc(C(=O)O)c3)n2)c1`: the cytotoxicity at 70.5 h is -16.7%.
With `CC(C)NC(=O)C1c2c(ncn2C(C)C)CCN1Cc1ccccc1` (stereo not drawn) the figure was -3.52%; with `OCC1(O)CCCN(Cc2noc(-c3ccccc3)n2)CC1` (stereo not drawn), 26.3%; with `CN(C)C(=O)Cc1ccc(NC(=O)c2cn(C)nn2)cc1`, -4.9%.
Turning to `Cc1noc(C)c1C(=O)N1CCC2(CC1)CC(Oc1ccccc1)CO2` (stereo not drawn), the cytotoxicity at 70.5 h was -3.84%.
The value for `Cn1ncc2c1CN(C(=O)Cc1ccccn1)CC2COCC1CC1` (stereo not drawn) was -10.6%.
The value for `CCc1nccn1C1CCCN(C(=O)c2ccoc2C)C1` (stereo not drawn) was 1.06%; that for `CCC(NC(=O)COC)c1ccccc1OCC(=O)N1CCCC1` (stereo not drawn) was -4.2%; that for `COCC(=O)N1C[C@H]2CN(Cc3csc(C)n3)C(=O)[C@H]2C1` was -8.09%.
The value for `Cc1oncc1C(=O)N1CCC2(CC1)CC(c1ccccc1)C(=O)N2C` (stereo not drawn) was -19%.
Take `Cc1c(C2CCCN(C(=O)OC(C)(C)C)C2)n2c(nc1=O)CCC2` (stereo not drawn): the cytotoxicity at 70.5 h is -5.64%.
The value for `Cc1cc(C(=O)N2CCC3(CC2)C(=O)NCCN3CC(C)C)c(C)o1` was -2.92%; that for `O=S(=O)(CCNC1CCc2ncnn2C1)c1ccc(Cl)cc1` (stereo not drawn) was -1.07%.
With `Cc1cc(F)ccc1N1CCCC(NS(=O)(=O)CCCF)C1=O` (stereo not drawn) the figure was -6.3%; with `Cc1nc(N2CCOCC2)sc1C(=O)NCC(C)(C)N1CCCCC1`, -2%; with `COc1ccc(F)c(F)c1CN1CC(=O)N(c2ccccc2C)CC1C` (stereo not drawn), -11.4%.
On to `O=C(CCc1nccs1)N1CCCC(N2CCNC2=O)C1` (stereo not drawn), for which the cytotoxicity at 70.5 h amounted to 0.762%.
Consider `CC(C)n1ccnc1C1CCN(Cc2ccc(C(F)(F)F)c(F)c2)CC1`, for which the cytotoxicity at 70.5 h stood at 23.4%.
With `CC(C)Cc1nc(CN2CCC(NC(=O)c3cccs3)CC2)no1` the figure was -6.12%; with `Cc1cn2c(n1)CCC(NC(=O)c1cc[nH]n1)C2` (stereo not drawn), -4.85%; with `CCN(Cc1c(C)nn(CC)c1C)S(=O)(=O)c1cn(C)nc1C`, -2.98%.
With `CCCn1nc2c(cc1=O)CN(Cc1ccccn1)CC2` the figure was 0.0556%; with `CCOC(=O)[C@]12CCCN(Cc3nccs3)C[C@H]1CN(C(C)C)C2`, -3.32%.
The value for `O=C(NC1CCS(=O)(=O)C1)c1ccc(SCc2cscn2)cc1` (stereo not drawn) was -6.01%; that for `Cc1nn(C)c(C)c1CNC1CCOc2ccccc21` (stereo not drawn) was -8.58%; that for `Cc1nc2ccccc2c(=O)n1CCC(=O)N1CCNC(=O)C1` was -2.46%.
Turning to `COc1ccccc1OCCNC(=O)CN1CCc2cncnc2C1`, the cytotoxicity at 70.5 h is -5.72%.
The value for `O=C(NC[C@H]1C[C@@H]2CCN1C[C@@H]2CN1CCCCC1)Nc1ccsc1` was -16%; that for `COCC1CN(S(=O)(=O)c2cccc(F)c2)Cc2nccn2C1` (stereo not drawn) was -7.05%.
The value for `CC[C@H](C)[C@H](NC(=O)c1ccccc1-n1cnnn1)C(=O)OC` was 33.9%; that for `CCC(C)(O)CNc1ccc(S(=O)(=O)C(F)F)cc1` (stereo not drawn) was -5.3%.
The value for `CC(=O)N1CCC2(CC1)CNc1c(F)cccc12` was -6.53%.
On to `Cc1nn(C)c2cnn(Cc3ccc(C(=O)NCC4CCCO4)o3)c12` (stereo not drawn), for which the cytotoxicity at 70.5 h is -5.42%.
The value for `O=S(=O)(CC1CCCCC1)NCc1ccnc(O)c1` was -7.43%; that for `CC(C)(O)CCc1cccc(C(=O)NCc2nccs2)c1` was 3.29%.
With `CCOc1cccc(CNc2cnn(CC(C)C)c2CC)c1` the figure was -7.62%.
With `O=C(NCc1cccnc1N1CCCCC1)c1ccc2c(c1)OCO2` the figure was -18.5%.
